Key:
CDK15/CycY = molecular target: T1, CDK15/CycY (Homo sapiens, UniProt Q96Q40); experiment: CDK family panel, ADP-Glo; assay type: biochemical
T1 construct: ICE Bioscience Inc. (assay service)

[1] = test system: phosphorylation of RNA polymerase II at Ser2; experiment: Washout experiment, RNA polymerase II Ser2 phosphorylation (immunoblot); assay type: cell-based, human; conditions: VCaP cells; YJZ5118 100 nM
Procedure: (§1) The previously reported reversible inhibitor 10 was included for comparison. VCaP cells were treated with the compounds for 6 h, after which the compounds were removed, and the cells were cultured in compound-free media for 5 days.
Generally, after incubation with the compounds for the indicated time, the tested cells were washed by cold PBS buffer (Gibco) and lysed with RIPA buffer (ThermoFisher Scientific) supplemented with cOmplete protease inhibitor cocktail tablets (Sigma-Aldrich). The cell lysate was treated with ultrasonic for 20s, following a centrifugation of 14000 rpm at 4°C for 10 min. The protein concentration was measured by BCA protein assay (DC Protein Assay, BIO-RAD). An equal amount of protein was loaded to 4–12% Bis-Tris gels and underwent SDS-PAGE electrophoresis at 120 V for 90 min. The proteins were transferred to a nitrocellulose (NC) membrane (Thermo Scientific) and the membranes were blocked in 5% milk buffer at room temperature for 1h, followed by incubating with primary antibody at the recommended dilution at 4°C for overnight. The membranes were washed by PBST for three times and incubated with anti-rabbit or anti-mouse HRP-conjugated secondary antibody for 1h at room temperature, after which the membranes were imaged by Odyssey CLx Imager (LiCOR Biosciences).

CDK12 = test system: CDK12; parameters: method as in PMID 30067358; conditions: LANCE Ultra assay; read-out: reported IC50 CDK12; cited from earlier work
CDK13 = test system: CDK13; parameters: method as in PMID 30067358; conditions: LANCE Ultra assay; read-out: reported IC50 CDK13; cited from earlier work
CDK12/CycK = molecular target: T2, CDK12/CycK (Homo sapiens, UniProt Q9NYV4); experiment: ADP-Glo kinase assay, CDK12; assay type: biochemical; conditions: for IC50: ADP-Glo kinase assay, means from three independent experiments
T2 construct: ICE Bioscience Inc. (assay service)
Procedure: (§2) The kinase inhibitory activities of the compounds against CDK12 and CDK13 were preliminarily evaluated using the ADP-Glo kinase assay. Cell growth inhibition was determined in VCaP prostate cancer cells, which were characterized as being sensitive to CDK12/13 inhibition.[14]
All the kinase activity were performed using an ADP-Glo kinase assay by ICE Bioscience Inc. (Beijing, China). Kinome selectivity profiles (KINOMEscan profiling) and Kd detection were performed by Eurofins DiscoveryX Corporation (San Diego, CA, USA).

CDK13/CycK = molecular target: T3, CDK13/CycK (Homo sapiens, UniProt Q14004); experiment: ADP-Glo kinase assay, CDK13; assay type: biochemical; conditions: means from three independent experiments
T3 construct: ICE Bioscience Inc. (assay service)
Procedure: as §2

[2] = test system: VCaP prostate cancer cells; experiment: Cell proliferation assay (CellTiter-Glo), VCaP; assay type: cell-based, human; conditions: for IC50: Homo sapiens, VCaP, 120 h, cell growth inhibition, 5 days, CellTiter-Glo
Procedure: as §2
Cells were seeded in 96-well plates and incubated at 37 °C and 5% CO2. After overnight incubation, serial dilutions of tested compounds were added to the plate. The assay was tested with Cell Titer-Glo (Promega) after 5 days. The luminescence signal was detected by the Infinite M1000 Pro plate reader (Tecan), and the IC50 values were calculated by GraphPad Prism 10.

VCaP cells [3] = experiment: Cell apoptosis assay by flow cytometry; assay type: cell-based, human; conditions: YJZ5118 at 100 nM
Procedure: Cells were seeded in six-well plates and incubated for 24 h at 37 °C and 5% CO2. Cells were then treated with the indicated concentrations of the tested compounds for 48 h. The treated cells then were collected, centrifuged and washed twice by cold PBS. […] Cell samples were analyzed with flow cytometry (SH800S cell sorter, Sony Biotechnology).

VCaP cells [4] = experiment: Washout experiment, cell growth; assay type: cell-based, human; conditions: VCaP cells treated 6 h, compound removed, 5 days in compound-free media
Procedure: as §1

[5] = Permeability and efflux ratio in Caco-2 cells; assay type: in vitro ADME; conditions: human
468 kinases = experiment: KINOMEscan kinase selectivity profiling; assay type: binding; conditions: 1 μM; 403 non-mutant kinases
Procedure: Figure S1. The results of selectivity profiling study of compound 14h. (A) Chemical structure and the K d values of compound 14h against CDK12/13, and the KinomeScan kinase selectivity proﬁles of compound 14h at 1 μM against 468 kinases; (B) KinomeScan profiling results of compound 14h against CDK family members.
(1 picture or pasted object on this page, not shown here)

[6] = Pharmacokinetics study in mice; assay type: in vivo, ICR mice; conditions: both sexes, ICR, mouse, plasma
VCaP CRPC xenograft = experiment: In vivo efficacy, VCaP CRPC mouse model; parameters: species or system mice; conditions: YJZ5118 i.p., q.d., uprosertib p.o., 5x/week, 27 days, compared to vehicle
Procedure: All the animal experiments were performed under an approved animal protocol (Protocol ID: PRO00010006, PI, Arul Chinnaiyan) by the Institutional Animal Care & Use Committee of the University of Michigan. Six- to eight-week-old NSG (Jackson Laboratory) or CB17SCID female (Charles River Laboratory) mice were in a regular SPF housing room prior to cell injection. Briefly, 5 ×10^6 cells of VCaP CRPC were injected […] of NSG or CB17SCID mice, respectively. After tumor size reached approximately 200–400 mm^3, animals were subjected to drug treatment. […] Vehicle consisted of 20% PEG400, 6% Cremophor EL, and 74% PBS solution. Tumors were collected at the end of the experiment for Western blot analysis.

T3 sequence (Q14004 whole entry): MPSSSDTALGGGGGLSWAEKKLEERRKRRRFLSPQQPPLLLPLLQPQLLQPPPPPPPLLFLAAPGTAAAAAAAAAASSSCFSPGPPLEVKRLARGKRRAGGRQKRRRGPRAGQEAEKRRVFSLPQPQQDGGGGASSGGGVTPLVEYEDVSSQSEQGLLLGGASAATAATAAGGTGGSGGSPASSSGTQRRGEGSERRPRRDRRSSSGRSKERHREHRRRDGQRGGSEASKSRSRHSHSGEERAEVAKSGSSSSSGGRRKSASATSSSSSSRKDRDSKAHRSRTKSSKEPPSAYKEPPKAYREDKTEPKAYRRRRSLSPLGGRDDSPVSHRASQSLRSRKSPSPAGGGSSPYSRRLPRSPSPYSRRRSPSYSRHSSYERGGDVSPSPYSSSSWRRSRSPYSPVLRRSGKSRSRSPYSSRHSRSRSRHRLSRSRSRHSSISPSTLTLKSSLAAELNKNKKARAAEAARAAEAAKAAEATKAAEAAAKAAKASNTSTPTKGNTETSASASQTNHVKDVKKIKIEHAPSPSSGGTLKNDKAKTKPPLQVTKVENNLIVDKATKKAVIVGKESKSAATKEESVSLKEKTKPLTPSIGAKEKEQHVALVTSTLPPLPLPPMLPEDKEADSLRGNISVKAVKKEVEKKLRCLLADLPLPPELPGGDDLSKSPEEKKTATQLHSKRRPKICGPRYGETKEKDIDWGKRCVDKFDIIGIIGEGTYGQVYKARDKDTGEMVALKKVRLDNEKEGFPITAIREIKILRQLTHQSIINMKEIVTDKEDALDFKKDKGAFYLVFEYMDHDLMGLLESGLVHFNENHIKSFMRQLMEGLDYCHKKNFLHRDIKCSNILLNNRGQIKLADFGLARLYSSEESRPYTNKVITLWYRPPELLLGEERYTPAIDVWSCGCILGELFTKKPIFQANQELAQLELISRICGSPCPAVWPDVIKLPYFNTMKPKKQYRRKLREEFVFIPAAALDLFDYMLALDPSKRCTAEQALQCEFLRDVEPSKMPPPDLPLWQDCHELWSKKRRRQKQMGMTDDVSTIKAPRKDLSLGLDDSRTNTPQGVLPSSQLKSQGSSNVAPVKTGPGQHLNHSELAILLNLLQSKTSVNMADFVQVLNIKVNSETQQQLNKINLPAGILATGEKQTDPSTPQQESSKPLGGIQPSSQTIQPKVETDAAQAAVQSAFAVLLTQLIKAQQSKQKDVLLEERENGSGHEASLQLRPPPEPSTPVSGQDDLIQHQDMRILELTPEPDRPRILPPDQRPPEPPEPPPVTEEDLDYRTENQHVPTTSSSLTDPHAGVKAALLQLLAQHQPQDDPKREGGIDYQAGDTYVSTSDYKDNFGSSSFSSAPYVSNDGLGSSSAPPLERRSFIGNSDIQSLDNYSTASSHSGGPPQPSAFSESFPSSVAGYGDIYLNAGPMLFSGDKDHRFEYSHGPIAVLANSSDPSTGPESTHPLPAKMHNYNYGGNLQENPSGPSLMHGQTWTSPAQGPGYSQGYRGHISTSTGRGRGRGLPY
T3 sequence (O75909 whole entry partner): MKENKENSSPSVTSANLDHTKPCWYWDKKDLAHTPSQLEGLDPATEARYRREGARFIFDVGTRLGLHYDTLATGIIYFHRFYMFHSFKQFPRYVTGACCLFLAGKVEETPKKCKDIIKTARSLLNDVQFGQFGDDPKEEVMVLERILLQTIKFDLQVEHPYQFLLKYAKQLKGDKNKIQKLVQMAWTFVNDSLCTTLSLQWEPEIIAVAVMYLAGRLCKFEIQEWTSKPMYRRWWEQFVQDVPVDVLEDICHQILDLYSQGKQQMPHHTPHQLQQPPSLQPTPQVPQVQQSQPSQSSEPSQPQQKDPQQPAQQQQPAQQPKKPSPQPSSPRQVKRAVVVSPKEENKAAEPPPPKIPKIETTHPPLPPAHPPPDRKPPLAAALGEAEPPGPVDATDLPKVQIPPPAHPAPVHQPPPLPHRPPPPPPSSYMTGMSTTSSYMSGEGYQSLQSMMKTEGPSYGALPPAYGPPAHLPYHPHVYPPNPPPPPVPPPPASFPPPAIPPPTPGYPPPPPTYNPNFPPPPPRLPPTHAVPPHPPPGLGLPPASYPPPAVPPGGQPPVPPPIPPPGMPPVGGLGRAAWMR
T2 sequence (Q9NYV4 whole entry): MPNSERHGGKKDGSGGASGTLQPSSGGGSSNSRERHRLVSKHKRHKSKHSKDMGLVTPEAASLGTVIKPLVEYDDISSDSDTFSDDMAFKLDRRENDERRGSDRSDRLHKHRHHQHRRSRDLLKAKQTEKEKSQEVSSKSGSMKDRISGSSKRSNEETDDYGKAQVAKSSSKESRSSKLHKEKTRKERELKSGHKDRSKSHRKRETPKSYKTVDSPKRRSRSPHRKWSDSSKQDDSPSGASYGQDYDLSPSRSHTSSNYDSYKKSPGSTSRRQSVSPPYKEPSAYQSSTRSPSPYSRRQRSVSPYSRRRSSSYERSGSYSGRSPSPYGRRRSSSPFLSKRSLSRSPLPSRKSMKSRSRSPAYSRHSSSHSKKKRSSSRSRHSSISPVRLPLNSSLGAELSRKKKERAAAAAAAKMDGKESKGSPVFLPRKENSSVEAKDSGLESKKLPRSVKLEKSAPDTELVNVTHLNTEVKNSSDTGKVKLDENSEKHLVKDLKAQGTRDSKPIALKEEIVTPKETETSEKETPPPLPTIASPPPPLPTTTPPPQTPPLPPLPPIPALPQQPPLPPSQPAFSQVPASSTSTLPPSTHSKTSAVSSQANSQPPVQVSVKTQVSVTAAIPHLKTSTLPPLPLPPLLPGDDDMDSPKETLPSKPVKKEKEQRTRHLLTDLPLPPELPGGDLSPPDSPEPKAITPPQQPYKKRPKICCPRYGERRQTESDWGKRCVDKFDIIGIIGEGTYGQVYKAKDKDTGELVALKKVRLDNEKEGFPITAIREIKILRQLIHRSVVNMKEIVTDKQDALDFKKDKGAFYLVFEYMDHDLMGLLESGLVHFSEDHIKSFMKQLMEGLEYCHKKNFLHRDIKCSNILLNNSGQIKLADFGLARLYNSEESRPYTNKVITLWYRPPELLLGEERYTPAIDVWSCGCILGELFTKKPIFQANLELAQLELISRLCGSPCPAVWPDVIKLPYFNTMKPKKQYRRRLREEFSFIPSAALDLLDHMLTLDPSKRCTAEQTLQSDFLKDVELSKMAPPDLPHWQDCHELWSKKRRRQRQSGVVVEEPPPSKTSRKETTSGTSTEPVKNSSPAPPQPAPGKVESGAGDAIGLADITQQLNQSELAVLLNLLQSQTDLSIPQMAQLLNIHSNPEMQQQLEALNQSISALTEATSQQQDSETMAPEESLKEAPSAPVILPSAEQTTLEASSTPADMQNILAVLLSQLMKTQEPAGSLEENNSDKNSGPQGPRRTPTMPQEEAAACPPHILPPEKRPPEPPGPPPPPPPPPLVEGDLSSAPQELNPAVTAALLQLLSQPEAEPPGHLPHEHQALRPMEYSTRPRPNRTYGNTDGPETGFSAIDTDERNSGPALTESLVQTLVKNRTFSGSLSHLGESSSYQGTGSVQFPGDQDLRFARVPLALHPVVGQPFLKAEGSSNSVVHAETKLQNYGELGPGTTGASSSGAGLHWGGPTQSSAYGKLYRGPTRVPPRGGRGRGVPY
T2 sequence (O75909 whole entry partner): as the sequence (O75909 whole entry partner) above
T1 sequence (Q96Q40 whole entry, species assumed): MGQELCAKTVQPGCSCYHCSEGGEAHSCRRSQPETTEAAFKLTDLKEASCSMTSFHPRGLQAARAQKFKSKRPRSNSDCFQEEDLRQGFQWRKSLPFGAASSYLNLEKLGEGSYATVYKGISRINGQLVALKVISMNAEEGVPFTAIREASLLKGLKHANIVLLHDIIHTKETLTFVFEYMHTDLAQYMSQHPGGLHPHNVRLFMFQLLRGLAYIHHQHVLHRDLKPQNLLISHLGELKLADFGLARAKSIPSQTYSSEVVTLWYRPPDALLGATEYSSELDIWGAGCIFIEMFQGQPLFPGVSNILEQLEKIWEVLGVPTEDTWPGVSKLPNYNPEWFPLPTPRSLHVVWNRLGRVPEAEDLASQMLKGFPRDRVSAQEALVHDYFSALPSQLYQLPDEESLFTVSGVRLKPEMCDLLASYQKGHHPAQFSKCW
T1 sequence (Q8ND76 whole entry partner, species assumed): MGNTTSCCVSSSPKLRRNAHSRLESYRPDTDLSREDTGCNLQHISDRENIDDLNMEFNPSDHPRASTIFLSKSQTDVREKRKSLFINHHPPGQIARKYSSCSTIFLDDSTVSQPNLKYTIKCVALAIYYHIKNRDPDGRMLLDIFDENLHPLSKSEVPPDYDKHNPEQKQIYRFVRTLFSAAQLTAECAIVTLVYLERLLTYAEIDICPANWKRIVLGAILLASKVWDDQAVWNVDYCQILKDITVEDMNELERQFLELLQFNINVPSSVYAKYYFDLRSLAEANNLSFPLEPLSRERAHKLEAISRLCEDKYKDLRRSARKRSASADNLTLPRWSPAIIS

Compound | IC50 (CDK12/CycK) | IC50 (CDK13/CycK) | IC50 [2] | further results
Cn1cc(-c2ccc(N(C(=O)NCc3ccccc3)[C@H]3CC[C@H](Nc4ccc(C#N)cn4)CC3)cc2)ccc1=O [Compound 2, reference compound] |  |  |  | IC50 (CDK15/CycY): 3020 nM; RNA polymerase II Ser2 phosphorylation after washout [1]: recovery of phosphorylation at 4 h after washout; IC50 (CDK12): 52 nM; IC50 (CDK13): 10 nM
CN(C)C/C=C/C(=O)Nc1ccc(C(=O)N2CCC[C@@H](Nc3ncc(Cl)c(-c4c[nH]c5ccccc45)n3)C2)cc1 [Compound 3, THZ531, reference compound] | 77.4 nM | 63.3 nM | 33.5 nM | apoptosis rate (VCaP cells [3]): 24.9%
Cn1cc(-n2cnc3c(NCc4nc5cc(Cl)c(Cl)cc5[nH]4)nc(N4CCOCC4)nc32)cn1 [Compound 10, SR-4835, reference compound] |  |  |  | cell growth inhibitory effect after washout (VCaP cells [4]): nearly completely lost following washout
C=CC(=O)Nc1cc(N(C(=O)NCc2ccccc2)[C@H]2CC[C@H](Nc3ccc(C#N)cn3)CC2)ccc1-c1ccc(=O)n(C)c1 [Compound 14a, N-(5-(3-benzyl-1-((1r,4r)-4-((5-cyanopyridin-2-yl)amino)cyclohexyl)ureido)-2-(1-methyl-6-oxo-1,6-dihydropyridin-3-yl)phenyl)acrylamide] | 37.9 nM | 14.9 nM | 330 nM | antiproliferative potency in VCaP cells, fold more potent than lead compound 2 [2]: approximately 6 fold; Papp A→B [5]: 0.07 ×10⁻⁶ cm/s; Papp B→A [5]: 5.25 ×10⁻⁶ cm/s; efflux ratio [5]: 72.6
C=CC(=O)Nc1cccc(N(C(=O)NCc2ccccc2)[C@H]2CC[C@H](Nc3ccc(C#N)cn3)CC2)c1 [Compound 14b, N-(3-(3-benzyl-1-((1r,4r)-4-((5-cyanopyridin-2-yl)amino)cyclohexyl)ureido)phenyl)acrylamide] | 506 nM | 99 nM | 96.2 nM | reduction in kinase inhibitory potency compared with 14a (CDK12/CycK; CDK12 and CDK13): 7- to 13 fold; fold more potency than 14a in the growth inhibition assay against VCaP cells [2]: 3.4 fold; Papp A→B [5]: 0.91 ×10⁻⁶ cm/s; Papp B→A [5]: 13.7 ×10⁻⁶ cm/s; efflux ratio [5]: 15
C=CC(=O)Nc1cc(N(C(=O)NCc2ccccc2)[C@H]2CC[C@H](Nc3ccc(C#N)cn3)CC2)ccc1N(C)CCN(C)C [Compound 14c, N-(5-(3-benzyl-1-((1r,4r)-4-((5-cyanopyridin-2-yl)amino)cyclohexyl)ureido)-2-((2-(dimethylamino)ethyl)(methyl)amino)phenyl)acrylamide] | 191 nM | 79.3 nM | 44.4 nM | antiproliferative potency in VCaP cells, fold more potent than lead compound 2 [2]: approximately 44 fold
C=CC(=O)Nc1cc(N(C(=O)NCc2ccccc2)[C@H]2CC[C@H](Nc3ccc(C#N)cn3)CC2)ccc1N1CC(N(C)C)C1 [Compound 14d, N-(5-(3-benzyl-1-((1r,4r)-4-((5-cyanopyridin-2-yl)amino)cyclohexyl)ureido)-2-(3-(dimethylamino)azetidin-1-yl)phenyl)acrylamide] | 151 nM | 73.7 nM | 133 nM | 
C=CC(=O)Nc1cc(N(C(=O)NCc2ccccc2)[C@H]2CC[C@H](Nc3ccc(C#N)cn3)CC2)ccc1N1CCC(N(C)C)C1 (stereo partly drawn) [Compound 14e, N-(5-(3-benzyl-1-((1r,4r)-4-((5-cyanopyridin-2-yl)amino)cyclohexyl)ureido)-2-(3-(dimethylamino)pyrrolidin-1-yl)phenyl)acrylamide] | 568 nM | 177 nM | 57.6 nM | 
C=CC(=O)Nc1cc(N(C(=O)NCc2ccccc2)[C@H]2CC[C@H](Nc3ccc(C#N)cn3)CC2)ccc1N1CCN(C)CC1 [Compound 14f, N-(5-(3-benzyl-1-((1r,4r)-4-((5-cyanopyridin-2-yl)amino)cyclohexyl)ureido)-2-(4-methylpiperazin-1-yl)phenyl)acrylamide] | 130 nM | 66.8 nM | 39.9 nM | 
C=CC(=O)Nc1cc(N(C(=O)NCc2ccccc2)[C@H]2CC[C@H](Nc3ccc(C#N)cn3)CC2)ccc1N1C[C@H]2C[C@@H]1CN2C [Compound 14g, N-(5-(3-benzyl-1-((1r,4R)-4-((5-cyanopyridin-2-yl)amino)cyclohexyl)ureido)-2-((1R,4R)-5-methyl-2,5-diazabicyclo[2.2.1]heptan-2-yl)phenyl)acrylamide] | 209 nM | 83.9 nM | 76.3 nM | 
C=CC(=O)Nc1cc(N(C(=O)NCc2ccccc2)[C@H]2CC[C@H](Nc3ccc(C#N)cn3)CC2)ccc1N1CCN(C)[C@@H](C)C1 [Compound 14h, N-(5-(3-benzyl-1-((1r,4S)-4-((5-cyanopyridin-2-yl)amino)cyclohexyl)ureido)-2-((S)-3,4-dimethylpiperazin-1-yl)phenyl)acrylamide] | 33.1 nM | 21.7 nM | 4.3 nM | Number of Hits, S (1) (468 kinases): 0; Number of Hits, S (10) (468 kinases): 2; Number of Hits, S (35) (468 kinases): 6; Selectivity Score S (10) (468 kinases): 0.005; Selectivity Score S (35) (468 kinases): 0.015; AUC(0-t) ([6]; iv, i.v. 2 mg/kg): 309 ng·h/mL; Cmax ([6]; iv, i.v. 2 mg/kg): 658 ng/mL; Tmax ([6]; iv, i.v. 2 mg/kg): 4.8 min; clearance ([6]; iv, i.v. 2 mg/kg): 108 mL/min/kg; half-life ([6]; iv, i.v. 2 mg/kg): 21.6 min; bioavailability ([6]; po, 10 mg/kg, p.o. 10 mg/kg, read-out: F (oral bioavailability)): 42.2%; AUC(0-t) ([6]; po, p.o. 10 mg/kg): 652 ng·h/mL; Cmax ([6]; po, p.o. 10 mg/kg): 499 ng/mL; Tmax ([6]; po, p.o. 10 mg/kg): 30 min; half-life ([6]; po, p.o. 10 mg/kg): 37.2 min
C=CC(=O)Nc1cc(N(C(=O)NCc2ccccc2)[C@H]2CC[C@H](Nc3ccc(C#N)cn3)CC2)ccc1N1CCN(C(C)=O)CC1 [Compound 14i, N-(2-(4-acetylpiperazin-1-yl)-5-(3-benzyl-1-((1r,4r)-4-((5-cyanopyridin-2-yl)amino)cyclohexyl)ureido)phenyl)acrylamide] | 331 nM | 164 nM | 45.5 nM | fold weaker potency against the kinases compared to 14f (CDK12/CycK; CDK12 and CDK13): 2- to 3 fold
C=CC(=O)Nc1cc(N(C(=O)NCc2ccccc2)[C@H]2CC[C@H](Nc3ccc(C#N)cn3)CC2)ccc1N1CCOCC1 [Compound 14j, N-(5-(3-benzyl-1-((1r,4r)-4-((5-cyanopyridin-2-yl)amino)cyclohexyl)ureido)-2-morpholinophenyl)acrylamide] | 55 nM | 12.8 nM | 59.9 nM | 
Cn1ncc(Cl)c1-c1cc(C(=O)N[C@H](CN)Cc2ccc(F)c(F)c2)oc1Cl [Uprosertib, reference compound] |  |  |  | tumor growth (VCaP CRPC xenograft): significant reduction in tumor growth

Source: paper PMC12147761 (Journal of medicinal chemistry, 2025)
